Patent US9101160B2, “Condiments with high-potency sweetener” (The Coca-Cola Company, priority 2005, dated 2015)

Format: physicochemical
Description: A solution of rebaudioside A ( >97% pure by HPLC ) was prepared in double distilled water (12.5 gm in 50 mL, 25% concentration) by stirring the mixture at 40° C. for 5 minutes. An amorphous form of rebaudioside A was formed by immediately using the clear solution for spray drying with the Lab-Plant spray drier SD-04 instrument (Lab-Plant Ltd., West Yorkshire, U.K.). The solution was fed through the feed pump into the nozzle atomizer which atomized it into a spray of droplets with the help of a constant flow of nitrogen/air. […] This dry powder (11-12 g, H2O 6.74%) was discharged continuously from the drying chamber and was collected in a bottle.

solubility in water at room temperature: > 35.0%
Substance: rebaudioside A [Form 4]
